Assay results reported in patent US11484607B2, “PSMA-targeted NIR dyes and their uses” (On Target Laboratories, LLC, priority 2015, dated 2022).

Key:
PSMA-negative PC3 cells = assay: OTL78 binding to PSMA-negative cells, cell bound fluorescence by fluorometer; parameters: species or system human; details: 30 min at 4° C.
Method: For OTL78 binding affinity, 22Rv1 or PC3 cells were seeded into a T75 flask and allowed to form a monolayer over 48 h. After trypsin digestion, cells were transferred into centrifuge tubes (1×10^6 cells/tube) and centrifuged. The medium was replaced with fresh medium containing increasing concentration of OTL78 and incubated for 30 min at 4° C. After rinsing with fresh medium (2×1.0 mL) and saline (1×1.0 mL), cells were lysed with 1% SDS with in saline (1.0 mL) and cell bound fluorescence was analyzed using a fluorometer (Cary Eclipse, Agilent Technologies). The binding affinity (Kd) was calculated using a plot of percent cell bound fluorescence versus concentration using GraphPad Prism 6.

22Rv1 tumor xenografts = assay: Fluorescence-guided surgery of prostate tumors with OTL78; assay type: in vivo, mice
Method: Growth of the tumors was measured as previously mentioned. After one month, the animals were mixed and divided into 2 groups (n=5 mice/group). Two hours after administering OTL78 (10 nmol in 100 μL saline per mouse), animals were given 1-5% isoflurane for anesthesia and imaged using AMI image system. After an insertion was made using scalpel through the skin, surgical removal of the tumors was performed either following conventional technique (e.g. visualization under white light or palpation) or with the aid of fluorescence guidance (FGS: debulking of visible tumors under conventional method followed by resection of residual fluorescence tissues under image-guided method). After the surgery, the skin was closed using staples and imaged the mice using AMI image system. After imaging, the residual fluorescent tissues from selected mice of conventional surgery group and tissues samples from the tumor beds of selected mice of FGS group were submit for pathological (IHC) analysis. Response to surgical treatment was monitored for over 30 days by imaging using AMI image system 2 h after injecting OTL78 (10 nmol/mouse) and by measuring the growth of the tumor volume using a caliper. Any animal with tumor volume ≥1000 mm3 were euthanized. Tumor-free survival of the mice was documented as % survival vs. time using GraphPad Prism 6. IHC studies were done as explained bellow in the Safety Studies.

[1] = Excitation and emission spectra by fluorometer; assay type: physicochemical; details: same concentration, 1 μM in 1 mL of PBS
Method: FIG. 38B—Excitation (Ex) & emission (Em) spectra of OTL78 (1 μM) and S0456 (1 μM) in 1 mL of PBS obtained using fluorometer.
Results and Conclusions: In an effort to improve limitations in current clinical practice of radical prostatectomy and tumor-specific imaging agents that are in the preclinical stages, OTL78 was assembled using: (i) a high affinity PSMA-targeting ligand (coined DUPA), (ii) a rationally designed 14 atoms long polyethylene glycol-dipeptide linker, and (iii) an inexpensive NIR dye ([…]) named S0456 (see FIG. 38A for the chemical structure). The dipeptide consisting of phenylalanine-tyrosine was designed to fit to the contours and chemistry of the tunnel accessing the binding pocket of the PSMA protein.

SMILES: CC1(C)C(/C=C/C2=C(Oc3ccc(C[C@H](NC(=O)[C@H](Cc4ccccc4)NC(=O)CCOCCOCCNC(=O)CC[C@H](NC(=O)N[C@@H](CCC(=O)O)C(=O)O)C(=O)O)C(=O)O)cc3)C(=C/C=C3/N(CCCCS(=O)(=O)O)c4ccc(S(=O)(=O)O)cc4C3(C)C)/CCC2)=[N+](CCCCS(=O)(=O)[O-])c2ccc(S(=O)(=O)O)cc21 [OTL78]
- binding to PSMA-negative PC3 cells (PSMA-negative PC3 cells): did not bind
- time to localize 22Rv1 tumors with high contrast (22Rv1 tumor xenografts; 10 nmol, preoperative images): ≤ 2 h
- postoperative residual fluorescence in the tumor bed, FGS cohorts (22Rv1 tumor xenografts; 10 nmol, surgery at 2 h): no significant fluorescence
- biochemical recurrence (BCR), FGS cohort (22Rv1 tumor xenografts; monitored for over a month): no sign of BCR
- survival, FGS cohorts (22Rv1 tumor xenografts; over 30 days): survived during the study
- residual tumors in tumor margin/bed tissues, FGS cohorts (22Rv1 tumor xenografts; pathological analysis): no residual tumors
- enhancement of the fluorescence of S0456 [1]: ≥ 2
